Measurements published in patent publication EP0795549A1, “Bis-aryloxy(amino)-triazinyl-oxy(amino)aryl derivatives, their preparation and their use as antiviral agents” (American Cyanamid Company, priority 1996, dated 1997).
Structures can show the parent of a compound that is named as a salt. Where two headings read alike, the source gives them in different places.

Legend:
vero cells = test: effect on cells: appearance of fixed, crystal violet-stained monolayer (vero); type: cell-based, African green monkey; set-up: key: N, no effect on the appearance of the alcohol-fixed and crystal violet-stained cell monolayer at the indicated compound concentration.; L, lightening of the intensity of staining (compared to controls) of the alcohol-fixed and crystal violet-stained cell monolayer at the indicated compound concentration but not at half that concentration; conditions: at 75 µg/ml
RSV (A2) = test: viral yield reduction (growth inhibition) assay, RSV; type: cell-based, Respiratory Syncitial Virus; conditions: for Antiviral IC50 µg/ml RSV/ Vero: format not given; for IC50: human respiratory syncytial virus
Protocol: (§1) The compounds were tested for biological activity using viral yield reduction assays. Host cells (indicated as HF for human foreskin fibroblasts and as vero, the commonly used African green monkey cell line, in Tables 1 and 1a) were plated at 4 x 10^4 cells/well in cell growth medium with 2% fetal bovine serum or 2% calf serum in 96-well plates (0.1 ml/well) and incubated overnight. The compounds were added to individual wells to give final concentrations ranging from 50 to 0.1 µg/ml in two-fold concentration steps. After 1 hour, virus was added, and the incubation was continued for 4 days with RSV or CMV and for 2 days with HSV. At the end of the experiment, the amount of virus growth was quantitated and the yield reduction at various concentrations of compound was calculated. This allows estimation of the concentration of compound giving 50% reduction in virus growth (IC50).

[1] = system: human foreskin fibroblasts (HF); test: effect on cells: appearance of fixed, crystal violet-stained monolayer (HF); type: cell-based; set-up: key: N, no effect on the appearance of the alcohol-fixed and crystal violet-stained cell monolayer at the indicated compound concentration.; L, lightening of the intensity of staining (compared to controls) of the alcohol-fixed and crystal violet-stained cell monolayer at the indicated compound concentration but not at half that concentration
CMV (Ad169) [2] = test: viral yield reduction (growth inhibition) assay, CMV; type: cell-based, Cytomegalovirus; conditions: for Antiviral IC50 µg/ml CMV /HF: Table 1a
Protocol: as §1

HSV1 (Patton) [3] = test: viral yield reduction (growth inhibition) assay, HSV; type: cell-based, Herpes Simplex Virus; conditions: for Antiviral IC50 µg/ml HSV Vero: Table 1a, HSV1 (Patton), format not given
Protocol: as §1

CMV (Ad169) [4] = test: viral plaque reduction assay, CMV; type: cell-based, Cytomegalovirus; conditions: CMV (Ad169), HF host cells
HSV1 (Patton) [5] = test: viral plaque reduction assay, HSV1; type: cell-based, Herpes Simplex Virus; conditions: HSV1 (Patton), vero host cells
[6] = Table 1a, HF, yield reduction or plaque format not specified

Compound	Effect on cells @ µg/ml indicated Vero (vero cells)	Antiviral IC50 µg/ml RSV/ HF (RSV (A2); [6]) [µg/mL]	Effect on cells @ µg/ml indicated HF ([1]; at 75 µg/ml)	Antiviral IC50 µg/ml CMV /HF (CMV (Ad169) [2]; HF, format not given) [µg/mL]	Antiviral IC50 µg/ml HSV Vero (HSV1 (Patton) [3]) [µg/mL]	further results
4',4-Bis-{4,6-bis-[3-(bis-carbamoylmethyl-1-sulfamoyl)-phenylamino]-[1,3,5]triazin-2-ylamino}-biphenyl-2,2'-disulfonic acid, disodium salt [Example 43]	N@75	0.1	N@75	2.5	6	–
4,4'Bis-(4,6-bis-{3-[bis-(2-hydroxy-propyl)-sulfamoyl]-phenylamino}-[1,3,5]triazin-2-ylamino)biphenyl-2,2'-disulfonic acid, disodium salt [Example 40]	N@75	0.2	N@75	4	20	–
4,4'-Bis-(4,6-bis-{3-[bis-(2-methylcarbamoyl-ethyl)-sulfamoyl]-phenylamino}-[1,3,5]triazin-2-ylamino)-biphenyl-2,2'-dicarboxylic acid, disodium salt [Example 35]	N@75	6	–	>50	>50	–
(E)-2,2'-(1,2-Ethenediyl)bis[5-[[4,6-bis[[3-[[3,5-bis(aminocarbonyl)-1-piperedinyl]sulfonyl]phenyl]amino]-1,3,5-triazin-2-yl]benzenesulfonic acid], disodium salt [Example 52]	–	1.5	–	–	–	Antiviral IC50 µg/ml RSV/ Vero (RSV (A2); Table 1a): 1.5 µg/mL; Effect on cells @ µg/ml indicated HF ([1]; at 37 µg/ml): L@37
O=C([O-])c1cc(Nc2nc(Nc3cccc(S(=O)(=O)N(CCO)CCO)c3)nc(Nc3cccc(S(=O)(=O)N(CCO)CCO)c3)n2)ccc1-c1ccc(Nc2nc(Nc3cccc(S(=O)(=O)N(CCO)CCO)c3)nc(Nc3cccc(S(=O)(=O)N(CCO)CCO)c3)n2)cc1C(=O)[O-].[Na+].[Na+] [Example 57, 4,4'-Bis-(4,6-bis-{3-[bis-(2-hydroxyethyl)-sulfamoyl]-phenylamino}-[1,3,5]-triazin-2-ylamino)biphenyl-2,2'dicarboxylic acid, disodium salt]	N@75	–	–	–	–	IC50 (RSV (A2); Table 1a, HF, yield reduction or plaque format not specified, read-out: Antiviral IC50 µg/ml RSV/ HF): 1.5 µg/mL; IC50 (CMV (Ad169) [2]; Human betaherpesvirus 5, Table 1a, HF, format not given, read-out: Antiviral IC50 µg/ml CMV /HF): 4 µg/mL; IC50 (HSV1 (Patton) [3]; Human alphaherpesvirus 1, Vero, read-out: Antiviral IC50 µg/ml HSV Vero): 30 µg/mL
NS(=O)(=O)c1cccc(Nc2nc(Nc3cccc(S(N)(=O)=O)c3)nc(Nc3ccc(/C=C/c4ccc(Nc5nc(Nc6cccc(S(N)(=O)=O)c6)nc(Nc6cccc(S(N)(=O)=O)c6)n5)cc4S(=O)(=O)O)c(S(=O)(=O)O)c3)n2)c1 [Example 15, 4,4'-Bis[4,6-di[3-aminophenylsulphonylamido]-1,3,5-triazin-2-ylamino]-stilbene-2,2'-disulfonic acid, disodium salt]	–	–	–	–	–	IC50 (RSV (A2); HF host cells, read-out: IC50 µG/mL IN GROWTH […]/ HF): 7 µg/mL; IC50 (RSV (A2); vero host cells, read-out: IC50 µG/mL IN GROWTH […]/ VERO): > 8.3 µg/mL; IC50 (CMV (Ad169) [4]; Human betaherpesvirus 5, read-out: IC50µG/mL IN PLAQUE ASSAY CMV/ HF): 1 µg/mL; IC50 (CMV (Ad169) [2]; Human betaherpesvirus 5, HF host cells, read-out: IC50 µG/mL IN GROWTH […]/ HF): 2 µg/mL
4,4'-Bis[4,6-di[3-aminophenyl-N,N-bis(2-hydroxyethyl)sulfonyliminol-1,3,5-triazin-2-ylamino]-biphenyl-2,2'-disulfonic acid, disodium salt [Example 22]	–	–	–	–	–	IC50 µG/mL IN GROWTH […]/ HF (RSV (A2); HF host cells): 0.15 µg/mL; IC50 µG/mL IN GROWTH […]/ VERO (RSV (A2); vero host cells): 0.25 µg/mL; IC50µG/mL IN PLAQUE ASSAY CMV/ HF (CMV (Ad169) [4]): 2 µg/mL; IC50 µG/mL IN GROWTH […]/ HF (CMV (Ad169) [2]; HF host cells): 4 µg/mL
1,2',1'',1'''-[(2,2'-disulfo[1,1'-biphenyl]-4,4'-diyl)-bis[imino-1,3,5-triazine-6,2,4-triylbis(imino-3,1-phenylenesulfonyl)]tetrakis[3,5-piperidinedicarboxylic acid [Example 54]	–	35	N@75	>50	–	Antiviral IC50 µg/ml RSV/ Vero (RSV (A2); Table 1a): >50 µg/mL
4,4'-Bis-[[4,6-bis-[[3-[[bis-[3-(methylamino)-3-oxopropyl]amino]sulfonyl]phenyl]amino]-1,3,5-triazin-2-yl]amino] [1,1'-biphenyl]-2,2'-disulfonic acid, disodium salt [Example 34]	L@75	1.2	N@75	>50	>50	–
4,4'-Bis-(4,6-bis{3-[bis-(2-carbamoyl-ethyl)-sulfamoyl]-phenylamino}- 1,3,5-triazin-2-ylamino]-biphenyl-2,2'-dicarboxylic acid, disodium salt [Example 30]	–	0.35	N@75	40	>50	–
4,4'Bis[4,6-di[3-aminophenyl-N,N-bis(2-hydroxyethyl)sulfonylimino]-1,3,5-triazin-2-ylamino]-stilbene-2,2'-disulfonic acid, disodium salt [Example 5]	–	–	–	–	–	IC50 µG/mL IN GROWTH […]/ VERO (RSV (A2); vero host cells): 0.4 µg/mL; IC50µG/mL IN PLAQUE ASSAY HSV/ VER O (HSV1 (Patton) [5]): 8 µg/mL
4',4-Bis-{4,6-bis-[3-(3,5-dicarbamoyl-piperidine-1-sulfonyl)-phenylamino]-[1,3,5]triazin-2-ylamino}-biphenyl-2,2'disulfonic acid, disodium salt [Example 53]	N@75	2	N@75	–	>50	Antiviral IC50 µg/ml RSV/ Vero (RSV (A2); Table 1a): 7 µg/mL
